Two compounds from US20240293558A1, “KRAS INHIBITOR CONJUGATES” (Erasca, Inc., priority 2021, published 2024) can be followed below.

Experiment [1] addresses KRAS G12D (Homo sapiens, UniProt P01116, G12D). As to the kind of experiment: Degradation of KRas G12D in AsPC-1 cells, Western blot. In kind it is cell-based. Details: endogenous in cells; host or cells: AsPC-1 (ATCC CRL-1682). As for the experimental part:
This Example illustrates that the compounds presented herein degrade KRAS G12D.
AsPC-1 cells (ATCC CRL-1682) expressing G12D were grown in RPMI-1640 medium supplemented with 10% fetal bovine serum, and Penicillin/Streptomycin. Cell were plated in 6-well tissue culture plates at a density of 1 million cells/well and allowed to attach for overnight. Diluted compounds were then added in a final concentration of 0.2% DMSO. After 24 hour treatment, the medium was removed, and the plate was washed three times with ice-cold PBS. 50ul of the RIPA cell lysis buffer (ThermoFisher 89901) supplemented with protease inhibitor (Roche 4693116001) and Phosphatase Cocktail A and B inhibitor (Bimake B15002; Bimake Houston TX) was added to each well, the adherent cells were scratched off, and transferred into pre-cold centrifuge tubes. After vigorous vortex, the tubes were incubated on ice for 30 minutes, centrifuged 14,000 rpm for 10 min at 4° C., and the supernatant were transferred into fresh tubes kept on ice. The protein concentration of the supernatant was determined with bicinchoninic acid method (BCA) (ThermoFisher 23227). Samples were prepared to the final concentration of 30ug in 20ul using NuPAGE LDS Sample Buffer (Invitrogen NP0007), NuPAGE Sample Reducing Agent (Invitrogen NP0009), and RIPA cell lysis buffer, and boiled at 95° C. for 15 minutes in water bath.
The levels of KRAS protein and phosphorylated ERK1/2 were determined by Western blotting. 20 μL of protein sample mixture was loaded into each well of 1.5 mm 4-12% Bis-Tris gel (Invitrogen NP0335), and run at 80V in stacking gel and 120 V in separating gel for about 2 h in MOPS running buffer (Invitrogen NP0001). The gel was transferred to the membrane (20V, 7 min) with Invitrogen iBlot2, and blocked with Li-Cor blocking buffer (LI-COR 927-60001; Li-Cor Biotechnology, Lincoln NE) for at least 1 h at room temperature. Primary antibodies diluted in the blocking buffer were added and incubated at 4° C. overnight. As the primary antibodies, KRAS (Proteintech 12063-1-AP), G12D Mutant Specific KRAS (Cell Signaling Technology 14429S), ERKI1/2 (Cell Signaling Technology 4695S), Phospho-ERKI1/2 (Cell Signaling Technology 4370S), and GAPDH (Millipore MAB374) were used. The membrane was washed 4 times with TBST (0.10% Tween20®; ThermoFisher 28360) for 5 minutes at room temperature, then incubated with Li-Cor anti-rabbit-800 (LI-COR 926-68070) and anti-mouse-680 (LI-COR-926-32211) diluted in Li-Cor blocking buffer with the ratio of 1:15,000 to visualize the primary antibodies for 1 hour at room temperature. Then membrane was washed 4 times with TBST (0.1% Tween20) 5 minutes. The signal intensities of bands were quantified by Li-Cor Odyssey CLX.
The KRas and phosphor-ERK1/2 signals were normalized to the GAPDH signal for each lane and percent of DMSO values were calculated to determine the degradation of KRas and the inhibition of ERK1/2 phosphorylation upon the compound treatment.
(In general: In western blotting, separated proteins are transferred to a membrane and probed.)

The target of experiment [2] is T1, WT KRAS (Homo sapiens, UniProt P01116).
T1 construct: endogenous in cells; host or cells: HT-29 (ATCC HTB-38)
T1 sequence (P01116 1-188 isoform P01116-2): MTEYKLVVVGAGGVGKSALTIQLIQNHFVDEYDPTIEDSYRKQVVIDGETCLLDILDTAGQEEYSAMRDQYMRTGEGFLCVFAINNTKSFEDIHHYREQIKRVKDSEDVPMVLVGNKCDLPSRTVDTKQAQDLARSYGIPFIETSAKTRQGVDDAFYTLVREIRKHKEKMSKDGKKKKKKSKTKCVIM
Nature of the experiment: Degradation of KRAS wild type (WT) in HT-29 cells, Western blot. In kind it is cell-based. The conditions noted are these: HT-29 cell line, after 24 h treatment (FIG. 12). The method, then:
This Example illustrates that embodiments of the present application degrade KRAS WT
HT-29 cells (ATCC HTB-38) expressing WT KRAS were grown in McCoy's 5a medium modified (ATCC cat #30-2007) supplemented with 10% fetal bovine serum, and Penicillin/Streptomycin. Cell were plated in 6-well tissue culture plates at a density of 1 million cells/well and allowed to attach for overnight. Diluted compounds were then added in a final concentration of 0.2% DMSO. After 24 hour treatment, the medium was removed, and the plate was washed three times with ice-cold PBS. 50ul of the RIPA cell lysis buffer (ThermoFisher 89901) supplemented with protease inhibitor (Roche 4693116001) and Phosphatase Cocktail A and B inhibitor (Bimake B15002; Bimake Houston TX) was added to each well, the adherent cells were scratched off, and transferred into pre-cold centrifuge tubes. […] The protein concentration of the supernatant was determined with bicinchoninic acid method (BCA) (ThermoFisher 23227). […]
The levels of KRAS protein were determined by Western blotting. […] The signal intensities of bands were quantified by Li-Cor Odyssey CLX.
The KRAS signals were normalized to the GAPDH signal for each lane and percent of DMSO values were calculated to determine the degradation of KRAS upon the compound treatment.

Chain of KRAS G12D (P01116 1-188 isoform P01116-2 G12D): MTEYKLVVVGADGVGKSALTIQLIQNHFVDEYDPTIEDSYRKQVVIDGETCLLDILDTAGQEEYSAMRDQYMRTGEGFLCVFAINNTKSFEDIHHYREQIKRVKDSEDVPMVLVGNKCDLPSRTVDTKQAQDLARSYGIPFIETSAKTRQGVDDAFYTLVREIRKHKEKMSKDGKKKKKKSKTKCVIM

What is called Dmax is the greatest extent of degradation seen. In general, DC50 refers to the midpoint of the concentration-degradation curve. A higher DC50 goes with a less potent degrader. In experiment [1] (ASPC1, AsPc-1 cell line after 24 h treatment), `Cc1ncsc1-c1ccc([C@H](C)NC(=O)[C@@H]2C[C@@H](O)CN2C(=O)[C@@H](NC(=O)CCOCCCN2CCCC2COc2nc(N3CC4CCC(C3)N4)c3cc(Cl)c(-c4ccc(F)c5sc(N)c(C#N)c45)c(F)c3n2)C(C)(C)C)cc1` (stereo partly drawn) [Example 8, (2S,4R)-1-[(2S)-2-[3-[3-[2-[[7-(2-amino-3-cyano-7-fluoro-benzothiophen-4-yl)-6-chloro-4-(3,8-diazabicyclo[3.2.1]octan-3-yl)-8-fluoro-quinazolin-2-yl]oxymethyl]pyrrolidin-1-yl]propoxy]propanoylamino]-3,3-dimethyl-butanoyl]-4-hydroxy-N-[(1S)-1-[4-(4-methylthiazol-5-yl)phenyl]ethyl]pyrrolidine-2-carboxamide] had a Dmax of 95%. Also, the “KRAS G12D degradation (Western blot), result in words” value in experiment [1] (AsPC-1 cells, FIGS. 1-5) is recorded as “Favorable results”. The compound also displayed a half-maximal degradation concentration (DC50) in experiment [1] (AsPc-1 cell line after 24 h treatment) of 71 nM.

In turn, `C[C@H](NC(=O)[C@@H]1C[C@@H](O)CN1C(=O)[C@@H](NC(=O)CCOCCCN1CCC[C@H]1COc1nc(N2CC3CCC(C2)N3)c2cc(C(F)(F)F)c(-c3ccc(F)c4sc(N)c(C#N)c34)c(F)c2n1)C(C)(C)C)c1ccc(-c2c(F)cccc2F)cc1` (single isomer, unassigned) [Example 20] gave a 50% degradation concentration (DC50) in experiment [2] of 426 nM.
